One assay deals with T1, BRG-1 (Homo sapiens, UniProt P51532).
T1 construct: made in house; host or cells: High Five insect cells
Description: ATPase catalytic activity of BRG-1, ADP-Glo in vitro biochemical assay. The following applies: ATPase catalytic activity, 30 nM BRG-1, 400 μM ATP, read-out: BRG1 IP50.

The next assay deals with T2, BRM (Homo sapiens, UniProt P51531).
T2 construct: made in house; host or cells: High Five insect cells
The assay can be described thus: ATPase catalytic activity of BRM, ADP-Glo in vitro biochemical assay. The following applies: ATPase catalytic activity, 30 nM BRM, 400 μM ATP, read-out: BRM IP50. For orientation: ADP-Glo turns the ADP formed in a reaction into a luminescent signal.

The results in this text go back to patent publication US20230079819A1, “COMPOUNDS AND USES THEREOF” (Foghorn Therapeutics Inc., priority 2019, published 2023).

pIC50: −log10 of the molar value.

T1 sequence (P51532 whole entry): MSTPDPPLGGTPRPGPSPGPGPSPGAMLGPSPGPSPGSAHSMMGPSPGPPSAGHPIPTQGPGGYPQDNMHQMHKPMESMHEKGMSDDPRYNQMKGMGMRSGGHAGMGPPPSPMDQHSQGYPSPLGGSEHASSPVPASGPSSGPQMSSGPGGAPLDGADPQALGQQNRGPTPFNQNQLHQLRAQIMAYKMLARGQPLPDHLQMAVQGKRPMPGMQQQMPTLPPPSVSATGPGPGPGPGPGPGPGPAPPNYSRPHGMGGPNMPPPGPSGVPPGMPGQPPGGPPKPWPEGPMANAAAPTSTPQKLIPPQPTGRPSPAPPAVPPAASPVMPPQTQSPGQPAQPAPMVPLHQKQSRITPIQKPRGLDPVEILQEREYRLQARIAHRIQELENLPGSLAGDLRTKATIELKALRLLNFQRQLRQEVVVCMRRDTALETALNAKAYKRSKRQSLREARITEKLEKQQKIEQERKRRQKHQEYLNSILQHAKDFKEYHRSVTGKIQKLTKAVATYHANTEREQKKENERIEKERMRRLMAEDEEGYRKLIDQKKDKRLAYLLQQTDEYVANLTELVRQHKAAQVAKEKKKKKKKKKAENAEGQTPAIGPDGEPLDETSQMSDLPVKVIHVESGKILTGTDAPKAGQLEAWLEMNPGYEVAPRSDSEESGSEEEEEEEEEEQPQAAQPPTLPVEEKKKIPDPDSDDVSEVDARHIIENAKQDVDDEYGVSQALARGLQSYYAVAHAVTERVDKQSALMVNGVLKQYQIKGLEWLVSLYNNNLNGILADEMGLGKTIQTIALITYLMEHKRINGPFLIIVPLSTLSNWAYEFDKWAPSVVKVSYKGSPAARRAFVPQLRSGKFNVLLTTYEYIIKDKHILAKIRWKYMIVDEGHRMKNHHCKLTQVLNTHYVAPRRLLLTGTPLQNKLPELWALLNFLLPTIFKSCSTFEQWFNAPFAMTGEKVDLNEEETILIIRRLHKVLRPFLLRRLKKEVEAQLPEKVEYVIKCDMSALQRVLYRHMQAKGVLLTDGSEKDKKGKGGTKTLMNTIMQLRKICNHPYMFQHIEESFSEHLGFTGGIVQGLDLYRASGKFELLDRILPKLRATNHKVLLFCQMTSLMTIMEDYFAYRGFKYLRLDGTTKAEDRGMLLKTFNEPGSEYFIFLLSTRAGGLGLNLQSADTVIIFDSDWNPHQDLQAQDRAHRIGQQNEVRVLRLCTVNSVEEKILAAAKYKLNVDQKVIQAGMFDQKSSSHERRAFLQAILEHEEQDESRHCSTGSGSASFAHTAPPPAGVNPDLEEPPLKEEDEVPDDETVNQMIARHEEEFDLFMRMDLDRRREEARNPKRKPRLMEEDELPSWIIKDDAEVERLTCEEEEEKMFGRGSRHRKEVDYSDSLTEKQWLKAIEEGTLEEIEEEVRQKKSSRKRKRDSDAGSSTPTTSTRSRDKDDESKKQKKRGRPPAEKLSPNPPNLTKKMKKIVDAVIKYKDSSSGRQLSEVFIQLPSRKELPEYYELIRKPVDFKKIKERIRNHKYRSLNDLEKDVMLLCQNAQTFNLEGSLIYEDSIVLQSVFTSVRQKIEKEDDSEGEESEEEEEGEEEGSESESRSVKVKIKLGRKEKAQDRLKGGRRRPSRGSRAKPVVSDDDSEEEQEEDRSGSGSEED
T2 sequence (P51531 whole entry): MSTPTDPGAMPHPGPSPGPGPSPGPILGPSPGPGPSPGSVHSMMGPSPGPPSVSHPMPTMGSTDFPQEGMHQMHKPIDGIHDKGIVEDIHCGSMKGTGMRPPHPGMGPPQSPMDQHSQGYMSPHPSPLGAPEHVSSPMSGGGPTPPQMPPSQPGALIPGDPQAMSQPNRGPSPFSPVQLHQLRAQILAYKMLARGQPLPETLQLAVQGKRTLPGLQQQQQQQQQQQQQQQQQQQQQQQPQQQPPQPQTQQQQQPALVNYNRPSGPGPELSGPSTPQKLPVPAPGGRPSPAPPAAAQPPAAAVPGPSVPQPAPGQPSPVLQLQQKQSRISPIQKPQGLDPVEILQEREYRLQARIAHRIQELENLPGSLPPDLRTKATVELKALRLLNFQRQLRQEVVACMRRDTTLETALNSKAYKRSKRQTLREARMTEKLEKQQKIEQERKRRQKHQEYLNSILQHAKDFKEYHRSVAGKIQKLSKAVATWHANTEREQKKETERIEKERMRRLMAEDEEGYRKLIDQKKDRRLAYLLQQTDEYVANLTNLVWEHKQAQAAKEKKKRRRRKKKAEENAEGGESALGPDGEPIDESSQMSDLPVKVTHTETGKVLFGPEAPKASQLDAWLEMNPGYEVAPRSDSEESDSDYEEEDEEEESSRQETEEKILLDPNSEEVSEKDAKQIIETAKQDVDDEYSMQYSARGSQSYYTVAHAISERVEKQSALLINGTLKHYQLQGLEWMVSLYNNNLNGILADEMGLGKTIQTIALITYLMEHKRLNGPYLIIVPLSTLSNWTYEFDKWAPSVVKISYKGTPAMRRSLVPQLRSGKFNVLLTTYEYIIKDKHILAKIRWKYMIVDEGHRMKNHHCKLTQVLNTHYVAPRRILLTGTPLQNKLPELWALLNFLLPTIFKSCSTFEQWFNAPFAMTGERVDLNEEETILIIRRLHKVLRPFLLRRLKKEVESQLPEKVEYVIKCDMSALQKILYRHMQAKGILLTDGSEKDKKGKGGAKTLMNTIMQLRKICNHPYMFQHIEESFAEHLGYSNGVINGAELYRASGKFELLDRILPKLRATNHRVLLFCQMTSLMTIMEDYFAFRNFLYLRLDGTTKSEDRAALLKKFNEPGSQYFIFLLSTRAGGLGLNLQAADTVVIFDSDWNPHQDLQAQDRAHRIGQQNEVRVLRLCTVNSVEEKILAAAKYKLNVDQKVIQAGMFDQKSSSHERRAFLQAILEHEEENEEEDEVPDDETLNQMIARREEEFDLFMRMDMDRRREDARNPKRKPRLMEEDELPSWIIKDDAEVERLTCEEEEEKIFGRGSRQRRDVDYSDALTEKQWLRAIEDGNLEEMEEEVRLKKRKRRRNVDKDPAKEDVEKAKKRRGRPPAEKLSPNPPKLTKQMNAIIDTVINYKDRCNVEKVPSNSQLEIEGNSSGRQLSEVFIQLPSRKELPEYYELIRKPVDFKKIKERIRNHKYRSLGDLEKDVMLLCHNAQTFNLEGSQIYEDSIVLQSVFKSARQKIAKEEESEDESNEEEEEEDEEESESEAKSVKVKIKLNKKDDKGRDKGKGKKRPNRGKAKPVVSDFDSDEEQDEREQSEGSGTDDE

On to `COC[C@H](NC(=O)c1ccn(S(C)(=O)=O)c1)C(=O)Nc1nc(-c2cccc(C3COC3)c2)cs1` [Compound 466], for which the pIC50 at BRG-1 and on BRM was < 8.00 in each case.

As for `CS(=O)(=O)n1ccc(C(=O)NCC(=O)Nc2nc(-c3ccc4c(c3)N(C3CCOC3)CC4)cs2)c1` (centres unmarked) [Compound 467], the pIC50 on BRG-1 and on BRM was < 8.00 in each case.

For `CC(C)N1CCc2ccc(-c3csc(NC(=O)CNC(=O)c4ccn(S(C)(=O)=O)c4)n3)cc21` [Compound 469], the pIC50 at BRG-1 and on BRM was < 7.00 each time.

On to `Cn1ncc(-c2cccc(-c3csc(NC(=O)CNC(=O)c4ccn(C5(C)COC5)c4)n3)n2)n1` [Compound 470], for which the pIC50 was < 7.00 at BRG-1 and < 8.00 at BRM.

As for `C[C@@H]1CN(c2cccc(-c3csc(NC(=O)CNC(=O)c4ccn(S(C)(=O)=O)c4)n3)c2)[C@@H](C)CO1` [Compound 471], the pIC50 at BRG-1 and at BRM was < 7.00 throughout.

For `CS(=O)(=O)n1ccc(C(=O)NCC(=O)Nc2nc(-c3cccc(C4CC(F)(F)C4)c3)cs2)c1` [Compound 472], the pIC50 at BRG-1 and at BRM was < 8.00 throughout.

For `N#CC1(n2ccc(C(=O)NCC(=O)Nc3nc(-c4cccc(N5CCC5)n4)cs3)c2)CC1` [Compound 473], the pIC50 was < 7.00 at BRG-1 and < 8.00 on BRM.

On to `Cn1ccc2ccc(-c3csc(NC(=O)CNC(=O)c4ccn(C5(C#N)CC5)c4)n3)cc2c1=O` [Compound 475], for which the pIC50 on BRG-1 and on BRM was > 8.00 in each case.

On to `N#CC1(n2ccc(C(=O)NCC(=O)Nc3nc(-c4cccc(N5CCC5)c4)cs3)c2)CC1` [Compound 476], for which the pIC50 at BRG-1 and on BRM was < 8.00 throughout.

For the molecule `C[C@@H]1CN(c2cccc(-c3cccc(NC(=O)CNC(=O)c4ccn(S(C)(=O)=O)c4)c3F)c2)C[C@H](C)O1` [Compound 477, N-(2-((3′-(cis-2,6-dimethylmorpholino)-2-fluoro-[1,1′-biphenyl]-3-yl)amino)-2-oxoethyl)-1-(methylsulfonyl)-1H-pyrrole-3-carboxamide], the pIC50 at BRG-1 and on BRM was < 7.00 each time.

Take `CC1COc2ccc(-c3csc(NC(=O)CNC(=O)c4ccn(S(C)(=O)=O)c4)n3)cc2N1C` (centres unmarked) [Compound 478]: the pIC50 on BRG-1 and on BRM was < 8.00 throughout.

Consider `CO[C@H]1C[C@@H](c2cccc(-c3csc(NC(=O)CNC(=O)c4ccn(S(C)(=O)=O)c4)n3)c2)C1` [Compound 479], for which the pIC50 at BRG-1 and on BRM was < 8.00 each time.

Turning to `CC(C)(C)n1ccc(C(=O)NCC(=O)Nc2nc(-c3cccc(C4CC(F)(F)C4)n3)cs2)c1` [Compound 481], the pIC50 at BRG-1 and at BRM was < 7.00 throughout.

On to `CC(C)(F)COc1cccc(-c2csc(NC(=O)CNC(=O)c3ccn(S(C)(=O)=O)c3)n2)c1` [Compound 483], for which the pIC50 at BRG-1 and at BRM was < 8.00 throughout.

Take `CC(C)(F)COc1cccc(-c2csc(NC(=O)CNC(=O)c3ccn(C4(C)COC4)c3)n2)c1` [Compound 484]: the pIC50 at BRG-1 and at BRM was < 7.00 each time.

On to `COC[C@H](NC(=O)c1ccn(C(C)(C)C)c1)C(=O)Nc1nc(-c2cc(C)c3ccn(C)c(=O)c3c2)cs1` [Compound 485], for which the pIC50 at BRG-1 and on BRM was > 8.00 throughout.

On to `CS(=O)(=O)n1ccc(C(=O)NCC(=O)Nc2nc(-c3ccc4c(c3)N(CC3COC3)CC4)cs2)c1` [Compound 486], for which the pIC50 on BRG-1 and at BRM was < 8.00 in each case.

For `CS(=O)(=O)n1ccc(C(=O)NCC(=O)Nc2nc(-c3ccc4c(c3)N(CC(F)F)CC4)cs2)c1` [Compound 487], the pIC50 at BRG-1 and at BRM was < 8.00 each time.

Turning to `C[C@H](NC(=O)c1ccn(C(C)(C)C)c1)C(=O)Nc1nc(-c2cccc(-c3cnn(C)n3)n2)cs1` [Compound 488], the pIC50 at BRG-1 and on BRM was < 7.00 throughout.

With `CS(=O)(=O)n1ccc(C(=O)NCC(=O)Nc2nc(-c3ccnc(OC4CC4)c3)cs2)c1` [Compound 489], the pIC50 on BRG-1 and at BRM was < 8.00 throughout.

Take `Cn1ncc2ccc(-c3csc(NC(=O)CNC(=O)c4ccn(C(C)(C)C)c4)n3)cc2c1=O` [Compound 492]: the pIC50 at BRG-1 and on BRM was < 8.00 in each case.

For the molecule `Cn1ccc2ccc(-c3csc(NC(=O)CNC(=O)c4ccn(C56CC(C5)C6)c4)n3)cc2c1=O` [Compound 493], the pIC50 at BRG-1 and at BRM was < 7.00 each time.

For `Cn1cnc2ccc(-c3csc(NC(=O)CNC(=O)c4ccn(C(C)(C)C)c4)n3)cc2c1=O` [Compound 494], the pIC50 at BRG-1 and at BRM was < 8.00 each time.

As for `CC(C)(C)n1ccc(C(=O)NCC(=O)Nc2nc(-c3cccc(C4(CO)CC4)n3)cs2)c1` [Compound 495], the pIC50 at BRG-1 is < 7.00; on BRM it was < 8.00.

In the case of `N#CC1(n2ccc(C(=O)NCC(=O)Nc3nc(-c4cccc(OC(F)(F)F)n4)cs3)c2)CC1` [Compound 496], the pIC50 at BRG-1 and on BRM was < 7.00 in each case.

In the case of `CC(C)(F)COc1cccc(-c2csc(NC(=O)CNC(=O)c3ccn(C4(C#N)CC4)c3)n2)n1` [Compound 498], the pIC50 at BRG-1 and at BRM was < 7.00 each time.

On to `CS(=O)(=O)n1ccc(C(=O)NCC(=O)Nc2nc(-c3cccc(N4CCC4)c3F)cs2)c1` [Compound 499], for which the pIC50 at BRG-1 and at BRM was > 8.00 throughout.

`CS(=O)(=O)n1ccc(C(=O)NCC(=O)Nc2nc(-c3cccc(OC(F)(F)F)c3F)cs2)c1` [Compound 501]: the pIC50 was < 7.00 on BRG-1 and < 8.00 on BRM.

With `CS(=O)(=O)n1ccc(C(=O)NCC(=O)Nc2nc(-c3cccc(OCC4(F)COC4)c3)cs2)c1` [Compound 502], the pIC50 at BRG-1 and at BRM was < 8.00 each time.

As for `CC(C)(C)n1ccc(C(=O)NCC(=O)Nc2nc(-c3cccc(OC(F)(F)F)n3)cs2)c1` [Compound 503], the pIC50 at BRG-1 and at BRM was < 7.00 each time.

Regarding `Cn1ccc2ccc(-c3csc(NC(=O)CNC(=O)c4ccn(C5(C)CCC5)c4)n3)cc2c1=O` [Compound 504], the pIC50 on BRG-1 and at BRM was < 8.00 throughout.

As to `C[C@@]1(n2ccc(C(=O)NCC(=O)Nc3nc(-c4cccc(N5CCC5)c4)cs3)c2)CCOC1` [Compound 505], the pIC50 on BRG-1 and on BRM was < 7.00 throughout.

With `C[C@]1(n2ccc(C(=O)NCC(=O)Nc3nc(-c4cccc(N5CCC5)c4)cs3)c2)CCOC1` [Compound 506], the values for the pIC50 at BRG-1 and on BRM were < 7.00 and < 8.00, respectively.

`CS(=O)(=O)n1ccc(C(=O)NCC(=O)Nc2nc(-c3cccc(OC4CCC4)c3F)cs2)c1` [Compound 507]: the pIC50 on BRG-1 and on BRM was < 8.00 each time.

Consider `CC(C)(C)n1ccc(C(=O)NCC(=O)Nc2nc(-c3cccc(OCC4(F)COC4)c3)cs2)c1` [Compound 509], for which the pIC50 on BRG-1 and at BRM was < 7.00 in each case.

In the case of `CC1(n2ccc(C(=O)NCC(=O)Nc3nc(-c4ccc(F)c(N5CCC5)c4)cs3)c2)COC1` [Compound 510], the pIC50 on BRG-1 and on BRM was < 8.00 each time.

`CS(=O)(=O)n1ccc(C(=O)NCC(=O)Nc2nc(-c3ccc(F)c(N4CCC4)c3)cs2)c1` [Compound 511]: the pIC50 on BRG-1 and at BRM was > 8.00 each time.

With `CC(C)(C)n1ccc(C(=O)NCC(=O)Nc2nc(-c3cccc(OC(F)F)n3)cs2)c1` [Compound 512], the pIC50 on BRG-1 and at BRM was < 7.00 in each case.

Consider `CO[C@H]1C[C@H](c2cccc(-c3csc(NC(=O)CNC(=O)c4ccn(C(C)(C)C)c4)n3)n2)C1` [Compound 514], for which the pIC50 at BRG-1 and at BRM was < 7.00 each time.

Turning to `CO[C@H]1C[C@@H](c2cccc(-c3csc(NC(=O)CNC(=O)c4ccn(C(C)(C)C)c4)n3)n2)C1` [Compound 515], the pIC50 at BRG-1 is < 7.00; at BRM, < 8.00.

Regarding `N#CC1(n2ccc(C(=O)NCC(=O)Nc3nc(-c4ccc(F)c(N5CCC5)c4)cs3)c2)CC1` [Compound 516], the pIC50 on BRG-1 and at BRM was < 8.00 each time.

Take `C[C@@H]1Cc2ccc(-c3csc(NC(=O)CNC(=O)c4ccn(S(C)(=O)=O)c4)n3)cc2O1` [Compound 517]: the pIC50 on BRG-1 and on BRM was < 8.00 in each case.

Consider `CS(=O)(=O)n1ccc(C(=O)NCC(=O)Nc2nc(-c3cc(F)cc(N4CCC4)c3)cs2)c1` [Compound 518], for which the pIC50 at BRG-1 and on BRM was > 8.00 in each case.

As to `CC1(n2ccc(C(=O)NCC(=O)Nc3nc(-c4cc(F)cc(N5CCC5)c4)cs3)c2)COC1` [Compound 519], the pIC50 on BRG-1 and on BRM was < 8.00 throughout.

Take `C[C@@H]1CN(c2cccc(-c3nc(NC(=O)CNC(=O)c4ccn(C(C)(C)C)c4)sc3F)n2)C[C@H](C)O1` [Compound 520, 1-(tert-butyl)-N-(2-((4-(6-(cis-2,6-dimethylmorpholino)pyridin-2-yl)-5-fluorothiazol-2-yl)amino)-2-oxoethyl)-1H-pyrrole-3-carboxamide]: the pIC50 was < 7.00 on BRG-1 and < 8.00 at BRM.

With `N#CC1(n2ccc(C(=O)NCC(=O)Nc3nc(-c4cc(F)cc(N5CCC5)c4)cs3)c2)CC1` [Compound 521], the pIC50 at BRG-1 was < 8.00; at BRM, > 8.00.

As for `N#CC1(n2ccc(C(=O)NCC(=O)Nc3nc(-c4cccc(OC(F)F)n4)cs3)c2)CC1` [Compound 522], the pIC50 on BRG-1 and at BRM was < 7.00 throughout.

Regarding `Cc1cncc(-c2cccc(-c3csc(NC(=O)CNC(=O)c4ccn(C5(C)COC5)c4)n3)n2)n1` [Compound 523, 1-(3-methyloxetan-3-yl)-N-[2-[[4-[6-(6-methylpyrazin-2-yl)-2-pyridyl]thiazol-2-yl]amino]-2-oxo-ethyl]pyrrole-3-carboxamide], the pIC50 on BRG-1 and on BRM was < 8.00 throughout.

Regarding `N#CC1(n2ccc(C(=O)NCC(=O)Nc3nc(-c4cccc(N5CCC5)c4F)cs3)c2)CC1` [Compound 524], the pIC50 at BRG-1 is < 8.00; on BRM it was > 8.00.
